Results on 38 compounds are retold here after patent US8841312B2, “Fused pyridine, pyrimidine and triazine compounds as cell cycle inhibitors” (Amgen Inc., priority 2007, dated 2014).

Assay [1] deals with Cdk4/CyclinD1 (Homo sapiens (Human), UniProt P11802). Description: Cdk4 kinase inhibition assay with recombinant Cdk4/CyclinD1, Rb substrate, [33P]-ATP filter plate. The class given is biochemical. Particulars: 25 μM ATP, read-out: Cdk 4 IC50. The method, boiled down:
(§1)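 Recombinant Cdk4/CyclinD1 or Cdk6/CyclinD3 phosphorylated Rb protein with [33P]-ATP for 1 h at room temperature. Protein was TCA-precipitated on filter plates and bound radioactivity counted. IC50 by nonlinear regression.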

The target of assay [2] is Cdk6/CyclinD3 (Homo sapiens (Human), UniProt Q00534). Put plainly: Cdk6 kinase inhibition assay with recombinant Cdk6/CyclinD3, Rb substrate, [33P]-ATP filter plate. The class given is biochemical. Particulars: 25 μM ATP, read-out: Cdk 6 IC50. Put shortly:
as §1

Chain of Cdk6/CyclinD3 (Q00534 whole entry): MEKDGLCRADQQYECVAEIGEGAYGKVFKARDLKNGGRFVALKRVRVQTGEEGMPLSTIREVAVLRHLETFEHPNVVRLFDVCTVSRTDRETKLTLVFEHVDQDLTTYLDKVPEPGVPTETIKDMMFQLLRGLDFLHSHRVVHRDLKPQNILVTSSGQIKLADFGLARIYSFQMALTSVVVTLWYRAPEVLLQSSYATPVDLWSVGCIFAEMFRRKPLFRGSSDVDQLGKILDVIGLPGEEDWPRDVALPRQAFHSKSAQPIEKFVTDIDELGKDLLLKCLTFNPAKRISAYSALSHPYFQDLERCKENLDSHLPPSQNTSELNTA
Chain of Cdk6/CyclinD3 (P30281 whole entry partner): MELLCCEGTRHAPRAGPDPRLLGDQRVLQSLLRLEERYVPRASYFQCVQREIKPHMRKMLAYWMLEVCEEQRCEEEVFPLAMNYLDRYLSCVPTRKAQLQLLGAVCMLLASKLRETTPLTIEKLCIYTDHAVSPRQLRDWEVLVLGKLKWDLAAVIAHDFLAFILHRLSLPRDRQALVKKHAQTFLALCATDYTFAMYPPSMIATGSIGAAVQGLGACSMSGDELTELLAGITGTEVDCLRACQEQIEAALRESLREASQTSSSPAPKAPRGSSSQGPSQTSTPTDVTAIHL
Chain of Cdk4/CyclinD1 (P11802 whole entry): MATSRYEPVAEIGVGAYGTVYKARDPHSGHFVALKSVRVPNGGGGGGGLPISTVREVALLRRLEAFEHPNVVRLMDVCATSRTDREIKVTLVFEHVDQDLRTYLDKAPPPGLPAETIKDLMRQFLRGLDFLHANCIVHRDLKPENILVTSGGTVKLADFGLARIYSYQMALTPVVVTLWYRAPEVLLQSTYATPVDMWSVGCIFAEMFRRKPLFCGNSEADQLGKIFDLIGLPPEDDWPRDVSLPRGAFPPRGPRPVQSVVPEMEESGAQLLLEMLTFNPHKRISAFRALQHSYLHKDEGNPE
Chain of Cdk4/CyclinD1 (P24385 whole entry partner): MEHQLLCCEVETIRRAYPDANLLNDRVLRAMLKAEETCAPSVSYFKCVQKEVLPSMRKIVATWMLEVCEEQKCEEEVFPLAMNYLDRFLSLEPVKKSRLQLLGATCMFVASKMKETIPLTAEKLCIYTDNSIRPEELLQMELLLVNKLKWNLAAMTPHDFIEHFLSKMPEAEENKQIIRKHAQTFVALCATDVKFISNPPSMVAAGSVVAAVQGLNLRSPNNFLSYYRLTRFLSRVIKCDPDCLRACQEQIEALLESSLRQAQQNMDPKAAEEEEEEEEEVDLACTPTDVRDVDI

For the compound `Oc1cc2c3cnc(Nc4ccc(N5CCNCC5)cn4)nc3n(C3CCCC3)c2cn1` [Example 43, 9-Cyclopentyl-2-(5-piperazin-1-yl-pyridin-2-ylamino)-9H-pyrido[4′,3′:4,5]pyrrolo[2,3-d]pyrimidin-6-ol], the IC50 in assay [1] is 136 nM; in assay [2], 218 nM.
Consider `CC1(C)CCC(n2c3cnccc3c3cnc(Nc4ccc(N5CCNCC5)cn4)nc32)CC1` [Example 204, 9-(4,4-dimethylcyclohexyl)-N-(5-(1-piperazinyl)-2-pyridinyl)-9H-pyrido[4′,3′:4,5]pyrrolo[2,3-d]pyrimidin-2-amine], for which the IC50 stood at 3.5 nM in assay [1] and 1.1 nM in assay [2].
As to `c1cc(-c2ccc(Nc3ncc4c5ccncc5n(C5CCCC5)c4n3)nc2)ccn1` [Example 260, N-3,4′-bipyridin-6-yl-9-cyclopentyl-9H-pyrido[4′,3′:4,5]pyrrolo[2,3-d]pyrimidin-2-amine], the IC50 in assay [1] came out at 45 nM; in assay [2], 60 nM.
For the compound `C[C@H](C1CCCCC1)n1c2cnccc2c2cnc(Nc3ccc(N4CCNCC4)cn3)nc21` [Example 28, (R)-[9-(1-Cyclohexyl-ethyl)-9H-pyrido[4′,3′:4,5]pyrrolo[2,3-d]pyrimidin-2-yl]-(5-piperazin-1-yl-pyridin-2-yl)-amine], the IC50 in assay [1] worked out at 57 nM; in assay [2] it was 61 nM.
Turning to `Oc1nccc2c3cnc(Nc4ccc(CN5CCNCC5)cn4)nc3n(C3CCCC3)c12` [Example 214, 9-cyclopentyl-2-((5-(1-piperazinylmethyl)-2-pyridinyl)amino)-9H-pyrido[4′,3′:4,5]pyrrolo[2,3-d]pyrimidin-8-ol], the IC50 in assay [1] was determined as 14 nM; in assay [2], 21 nM.
The matching figures for `c1cc2c3cnc(Nc4ccc(N5CCOCC5)nn4)nc3n(C3CCCC3)c2cn1` [Example 106]: 4 nM and 24.3 nM.
Taken in the same sequence, the figures for `O=C1CN(Cc2ccc(Nc3ncc4c5ccncc5n(C5CCCC5)c4n3)nc2)CCN1` [Example 225, 4-((6-((9-cyclopentyl-9H-pyrido[4′,3′:4,5]pyrrolo[2,3-d]pyrimidin-2-yl)amino)-3-pyridinyl)methyl)-2-piperazinone] were 4 nM and 3 nM.
For the compound `c1ccc2c(c1)c1cnc(Nc3ccc(N4CCNCC4)cn3)nc1n2C1CCOCC1` [Example 38, (5-piperazin-1-yl-pyridin-2-yl)-[9-(tetrahydro-pyran-4-yl)-9H-pyrimido[4,5-b]indol-2-yl]-amine], the IC50 amounted to 2.1 nM in assay [1] and 15.3 nM in assay [2].
Taken in the same sequence, the figures for `c1cc2c3cnc(Nc4ccc(N5CCNCC5)cn4)nc3n(C3CCCCCC3)c2cn1` [Example 34, (9-Cycloheptyl-9H-pyrido[4′,3′:4,5]pyrrolo[2,3-d]pyrimidin-2-yl)-(5-piperazin-1-yl-pyridin-2-yl)-amine] were 11 nM and 21 nM.
Taken in the same sequence, the figures for `COc1nccc2c3cnc(Nc4ccc(N5CCNCC5)cn4)nc3n(C3CCCC3)c12` [Example 52, 9-cyclopentyl-8-(methyloxy)-N-(5-(1-piperazinyl)-2-pyridinyl)-9H-pyrido[4′,3′:4,5]-pyrrolo[2,3-d]pyrimidin-2-amine] were 12 nM and 22 nM.
Taken in the same sequence, the figures for `C[C@@H](C1CCCCC1)n1c2cnccc2c2cnc(Nc3ccc(N4CCNCC4)cn3)nc21` [Example 29] were 3.9 nM and 5.7 nM.
On to `CC(C)(C)n1c2cnccc2c2cnc(Nc3ccc(N4CCNCC4)cn3)nc21` [Example 27, (9-tert-Butyl-9H-pyrido[4′,3′:4,5]pyrrolo[2,3-d]pyrimidin-2-yl)-(5-piperazin-1-yl-pyridin-2-yl)-amine], for which the IC50 in assay [1] is 5.5 nM; in assay [2], 7 nM.
The matching figures for `OCCCNc1ccc(Nc2ncc3c4ccncc4n(C4CCCC4)c3n2)nn1` [Example 297]: 1.4 nM and 13 nM.
Taken in the same sequence, the figures for `COc1ccc(-c2ccc(Nc3ncc4c5ccncc5n(C5CCCC5)c4n3)nn2)cn1` [Example 261, 9-Cyclopentyl-N-(6-(6-methoxy-3-pyridinyl)-3-pyridazinyl)-9H-pyrido[4′,3′:4,5]pyrrolo[2,3-d]pyrimidin-2-amine] were 233 nM and 360 nM.
The matching figures for `CC1CN(c2ccc(Nc3ncc4c5ccnc(F)c5n(C5CCCC5)c4n3)nc2)CC(C)N1` (stereo not shown) [Example 189, 9-Cyclopentyl-N-(5-(3,5-dimethyl-1-piperazinyl)-2-pyridinyl)-8-fluoro-9H-pyrido[4′,3′:4,5]pyrrolo[2,3-d]pyrimidin-2-amine]: 20 nM and 22 nM.
Take `c1cc2c3cnc(Nc4ccc(N5CCNCC5)cn4)nc3n(C3CC4CCC3C4)c2cn1` (stereo not shown) [Example 24, (9-Bicyclo[2.2.1]hept-2-yl-9H-pyrido[4′,3′:4,5]pyrrolo[2,3-d]pyrimidin-2-yl)-(5-piperazin-1-yl-pyridin-2-yl)-amine]: the figures for the IC50 in assay [1] and in assay [2] were 0.94 nM and 5.1 nM, respectively.
Taken in the same sequence, the figures for `C[C@H]1CN(c2ccc(Nc3ncc4c5ccccc5n(C5CCCC5)c4n3)nn2)CCN1` [Example 302] were 47 nM and 23 nM.
The matching figures for `CN(C)C1CCN(c2ccc(Nc3ncc4c5ccnc(F)c5n(C5CCCC5)c4n3)nn2)CC1` [Example 252, 9-Cyclopentyl-N-(6-(4-(dimethylamino)-1-piperidinyl)-3-pyridazinyl)-8-fluoro-9H-pyrido[4′,3′:4,5]pyrrolo[2,3-d]pyrimidin-2-amine]: 2 nM and 5 nM.
The matching figures for `N[C@H]1CCN(c2ccc(Nc3ncc4c5ccncc5n(C5CCCC5)c4n3)nn2)C1` [Example 108]: 12 nM and 15.7 nM.
In the case of `c1cc2c3cnc(Nc4ccc(N[C@@H]5CCNC5)cn4)nc3n(C3CCCC3)c2cn1` [Example 63], the values for the IC50 in assay [1] and in assay [2] were 3.4 nM and 20 nM, respectively.
The matching figures for `O[C@@H]1CCN(c2ccc(Nc3ncc4c5ccncc5n(C5CCCC5)c4n3)nn2)C1` [Example 18, (R)-9-cyclopentyl-N-(6-(3-hydroxypyrrolidin-1-yl)-3-pyridazinyl)-9H-pyrido[4′,3′:4,5]-pyrrolo[2,3d]pyrimidin-2-amine]: 1.6 nM and 1.5 nM.
The matching figures for `c1cc2c3cnc(Nc4ccc(N5CCC(NC6CCC6)CC5)cn4)nc3n(C3CCCC3)c2cn1` [Example 468]: 4.2 nM and 19 nM.
The matching figures for `CC(C)n1c2cnccc2c2cnc(Nc3ccc(N4CCC(N(C)C)CC4)nn3)nc21` [Example 160, N-(6-(4-(Dimethylamino)-1-piperidinyl)-3-pyridazinyl)-9-(1-methylethyl)-9H-pyrido[4′,3′:4,5]pyrrolo[2,3-d]pyrimidin-2-amine]: 2.5 nM and 4.8 nM.
`COCCn1c2cnccc2c2cnc(Nc3ccc(N4CCNCC4)cn3)nc21` [Example 312]: the IC50 in assay [1] is 370 nM; in assay [2], 790 nM.
The matching figures for `c1cc2c3cnc(Nc4ccc(N5CCCCC5)nn4)nc3n(C3CCCC3)c2cn1` [Example 107]: 8.4 nM and 48 nM.
The matching figures for `c1cc2c3cnc(Nc4ccc(NC5CCNCC5)nn4)nc3n(C3CCCC3)c2cn1` [Example 96]: 16.2 nM and 12.4 nM.
Consider `C[C@@H](O)Cn1c2cnccc2c2cnc(Nc3ccc(N4CCNCC4)cn3)nc21` [Example 356], for which the IC50 in assay [1] came out at 360 nM; in assay [2], 370 nM.
The matching figures for `CN1CCN(c2ccc(Nc3ncc4c5ccccc5n(C5CCCC5)c4n3)nn2)CC1` [Example 301]: 31 nM and 22 nM.
For the compound `COc1cc2c3cnc(Nc4ccc(N5CCNCC5)cn4)nc3n(C3CCCC3)c2nn1` [Example 202, 9-cyclopentyl-3-methoxy-N-(5-(1-piperazinyl)-2-pyridinyl)-9H-pyrimido[5′,4′:4,5]pyrrolo[2,3-c]pyridazin-7-amine], the IC50 in assay [1] worked out at 141 nM; in assay [2] it was 520 nM.
For `C[C@@H](O)CNC1CCN(c2ccc(Nc3ncc4c5ccncc5n(C5CCCC5)c4n3)nn2)CC1` [Example 441], the IC50 in assay [1] is 1.7 nM; in assay [2] it was 3.8 nM.
Taken in the same sequence, the figures for `C[C@@H](CO)Nc1ccc(Nc2ncc3c4ccncc4n(C4CCCC4)c3n2)nn1` [Example 296] were 5.5 nM and 14 nM.
Taken in the same sequence, the figures for `OCCNC1CCN(c2ccc(Nc3ncc4c5ccncc5n(C5CCCC5)c4n3)nc2)CC1` [Example 458] were 4.8 nM and 5.1 nM.
With `C[C@H]1CN(c2ccc(Nc3ncc4c5ccncc5n(C5CCCC5)c4n3)nn2)CCN1` [Example 9], the IC50 in assay [1] came out at 3.8 nM; in assay [2], 19.5 nM.
With `CC[C@@H](C)n1c2cnccc2c2cnc(Nc3ccc(N4CCC(NC)CC4)nn3)nc21` [Example 318], the IC50 in assay [1] came out at 2.9 nM; in assay [2] it was 27 nM.
As to `CC1(n2c3cnccc3c3cnc(Nc4ccc(N5CCNCC5)cn4)nc32)CCC1` [Example 33, [9-(1-Methyl-cyclobutyl)-9H-pyrido[4′,3′:4,5]pyrrolo[2,3-d]pyrimidin-2-yl]-(5-piperazin-1-yl-pyridin-2-yl)-amine], the results for the IC50 in assay [1] and in assay [2] were 5.3 nM and 8.9 nM, respectively.
Taken in the same sequence, the figures for `OCC1CCN(c2ccc(Nc3ncc4c5ccncc5n(C5CCCC5)c4n3)nn2)CC1` [Example 103] were 5.6 nM and 2.6 nM.
`c1cc2c3cnc(Nc4ccc(N5CCNCC5)cc4)nc3n(C3CCCC3)c2cn1` [Example 3, (9-Cyclopentyl-9H-pyrido[4′,3′:4,5]pyrrolo[2,3-d]pyrimidin-2-yl)-(4-piperazin-1-yl-phenyl)-amine]: the IC50 in assay [1] is 0.45 nM; in assay [2], 2.9 nM.
Regarding `C1=C(c2ccc(Nc3ncc4c5ccncc5n(C5CCCC5)c4n3)nn2)CCNC1` [Example 255, 9-Cyclopentyl-N-(6-(1,2,3,6-tetrahydro-4-pyridinyl)-3-pyridazinyl)-9H-pyrido[4′,3′:4.5]pyrrolo[2,3-d]pyrimidin-2-amine], the values for the IC50 in assay [1] and in assay [2] were 5.6 nM and 60 nM, respectively.

In general, IC50 refers to the midpoint of a concentration-inhibition curve.
